Experimental data reported in US11981918B2, “Differentiation technique to generate dopaminergic neurons from induced pluripotent stem cells” (CEDARS-SINAI MEDICAL CENTER, priority 2018, dated 2024).
Entries after “also recorded” stand apart in the source; their conditions may differ. Where a SMILES comes first, the peptide text is derived from it. The star is where a group is joined. Cbz = O=C(OCc1ccccc1)*

Legend:
[1] = test system: P53; assay: P53 level in DaN cultures under proteasome inhibition; format: cell-based, human; conditions: 24 hrs
From the text: (§1) […]. Western blot showing synuclein degradation under 24 hrs of MG132 proteosomal inhibitor (e). Western blot showing reduced LAMP1 protein in PD DaNs (f). […]. Data were normalized to 02iCTR for each differentiation and presented as a fold change (g). NIRF detection of oxidized dopamine from D30 DaN lysates (h)
(§2) Protein degradation can be largely divided into protosomal and autophagy/lysosomal degradation pathways.

[2] = test system: α-Synuclein; assay: α-Synuclein level in DaN cultures under proteasome inhibition; format: cell-based, human; conditions: 24 hrs
From the text: as §1, §2

[3] = test system: α-Synuclein; assay: α-Synuclein protein in iPSC-derived DaNs treated with lysosomal agonists (western blot); format: cell-based, human; conditions: for amount of α-Synuclein protein: DaNs from control lines; for amount of α-Synuclein protein / synuclein levels: treated for 3 days starting at day 27; for synuclein levels: EOSPD DaNs; for α-Synuclein levels: both control and PD DaNs, all treated lines
From the text: FIG. 5: Treatment with lysosomal agonists and Elevated p-PKCa in PD lines. […] Baseline levels of p-PKCa in d30 DaNs (b). Day 30 DaNs treated with PEP from multiple PD and control lines(c). Timecourse of PEP treatment and synuclein levels (d) Timecourse of PEP treatment SNCA (e) and TH (f) gene expression.
To test if the Inventors could reduce synuclein levels in our EOSPD DANs through activation of lysosomal specific pathways, the Inventors selected 3 lysosomal agonists. […] Starting at day 27, DaNs were treated for 3 days with the above lysosomal agonists.

[4] = test system: TH enzyme; assay: TH enzyme amount in iPSC-derived DaNs treated with lysosomal agonists (western blot); format: cell-based, human; conditions: both control and PD DaNs, treated for 3 days
[5] = test system: p-PKCa; assay: Phosphorylated PKC alpha in iPSC-derived DaNs after PEP005 treatment (western blot); format: cell-based, human
[6] = test system: LAMP1; assay: LAMP1 protein in DaNs after PEP treatment; format: cell-based, human; conditions: PD cells
[7] = test system: LC3; assay: LC3 protein in DaNs after PEP treatment; format: cell-based, human; conditions: PD cells
[8] = test system: cleaved caspase 3 (CC3); assay: Cleaved caspase 3 in DaNs after PEP treatment; format: cell-based, human; conditions: DaNs on drug treatment, most easily observed in PD cells; listed as PEP
From the text: (§3) The elevated phosphorylation of PKCa was absent in the undifferentiated iPSCs and no clear pattern was evident in peripheral blood from the individual patients indicating specificity to the differentiated DaNs. […].
(§4) It is likely that the toxicity of PEP is more specific to highly proliferative cells whereas our differentiated neurons are largely post mitotoic.

[9] = test system: SNCA; assay: SNCA gene expression timecourse of PEP treatment in DaNs; format: cell-based, human; conditions: 4 hours after PEP treatment
Procedure: (§5) FIG. 5: Treatment with lysosomal agonists and Elevated p-PKCa in PD lines. Western blot and relative band quantifications of d30 DaNs treated with indicated compounds for 72 hours (a). Baseline levels of p-PKCa in d30 DaNs (b). Day 30 DaNs treated with PEP from multiple PD and control lines(c). Timecourse of PEP treatment and synuclein levels (d) Timecourse of PEP treatment SNCA (e) and TH (f) gene expression. Confirmation of elevated synuclein and p-PKCa in addition control and PD lines (g)
as §3

[10] = test system: TH; assay: TH gene expression timecourse of PEP treatment in DaNs; format: cell-based, human; conditions: roughly 8 hours after initial exposure
Procedure: as §5, §3

[11] = test system: DaN cultures; format: cell-based, human; conditions: DaN cultures on drug treatment
From the text: as §4

[12] = test system: synuclein; assay: In vivo synuclein in striatum after injection of PEP into the ventricles of WT mice; set-up: species or system mouse; conditions: WT mice, 0.3, 3 and 30 μM injected into the ventricles, 1 and 5 days post injection
[13] = test system: TH; assay: In vivo TH in striatum after injection of PEP into the ventricles of WT mice; set-up: species or system mouse; conditions: WT mice, 0.3, 3 and 30 μM injected into the ventricles, 1 and 5 days post injection
[14] = test system: PKC C1 domains; conditions: cited from earlier work
[15] = test system: various cancer cell lines and primary acute myeloid leukaemia (AML) cells; conditions: cited from earlier work
[16] = test system: leukemic cell lines and primary AML cells; conditions: by activating PKCδ and sustained activation of ERK1/2; cited from earlier work
[17] = test system: PC12 cell model; conditions: cited from earlier work
[18] = test system: α-Synuclein; conditions: cited from earlier work
[19] = test system: neurons in Brain-Chip; format: cell-based, human
[20] = time-course, control and PD DaNs

## CC(C)C[C@@H](C=O)NC(=O)[C@H](CC(C)C)NC(=O)[C@H](CC(C)C)NC(=O)OCc1ccccc1 [MG132] (Cbz-Leu-Leu-Leu-aldehyde)
[1]
  P53 level: accumulation of P53
[2]
  α-Synuclein levels: no substantial change

## C/C=C(/C)C(=O)O[C@H]1C(C)=C[C@]23C(=O)[C@@H](C=C(CO)[C@@H](O)[C@]12O)[C@H]1[C@@H](C[C@H]3C)C1(C)C [PEP005, ingenol-3-angelate]
[3]
  amount of α-Synuclein protein: significantly reduced
  synuclein levels: substantially reduced
  α-Synuclein levels: reduced
[3]; listed as PEP
  α-Synuclein levels: reduced synuclein in all treated lines
[3]; [20]
  time in which α-Synuclein is degraded in response to drug treatment: ≤ 24 h
[4]
  amount of TH enzyme: increased amount of TH enzyme
[4]; listed as PEP
  amount of TH enzyme: increase in the amount of TH
[5]; 1 μM for 3 days, DaNs from all iPSC lines
  phosphorylation of PKCa: clearly ablated
[5]; control and PD DaNs, at endpoint of 72 hours treatment
  PKC alpha phosphorylation signal: completely ablating this signal
[5]; [20]
  time in which p-PKCa is degraded in response to drug treatment: ≤ 24 h
[6]
  LAMP1 response: does not appear to be replicated
[6]; listed as PEP
  LAMP1 response: neither LAMP1 nor LC3 respond
[7]
  LC3 response: neither LAMP1 nor LC3 respond
[8]
  cleaved (active) caspase 3: marked decrease; also recorded: decrease in the amount of active caspase 3
[9]
  SNCA gene expression: downregulated
[10]
  TH gene expression: upregulated
[11]
  LDH: nor do the Inventors see an increase in LDH
[12]
  synuclein in mouse striatum: Reduction of synuclein
[13]
  TH in mouse striatum: increase in TH
[14]
  selectivity for individual PKC isoforms: no selectivity
[15]
  proliferation: inhibiting proliferation
[16]
  apoptosis: induces apoptosis

## C=CCNc1ncnc2ccc(Br)cc12 [SMER28]
[3]
  amount of α-Synuclein protein: significantly reduced
  synuclein levels: only the PKC agonist PEP005 substantially reduced synuclein levels
[17]
  Huntington and α-Synuclein aggregates: reduce

## OC[C@H]1O[C@H](O[C@H]2O[C@H](CO)[C@@H](O)[C@H](O)[C@H]2O)[C@H](O)[C@@H](O)[C@@H]1O [Trehalose]
[3]
  amount of α-Synuclein protein: not Trehalose significantly reduced
  synuclein levels: only the PKC agonist PEP005 substantially reduced synuclein levels
[18]
  clearance of α-Synuclein: promote clearance

## NC1=N[C@H](O)[C@H]2[C@H]3O[C@]4(O)O[C@@H]([C@@H](O)[C@@]2(N1)[C@@H]4O)[C@]3(O)CO [tetrodotoxin]
[19]
  neuron activity (calcium imaging): Neuron activity ablated
